According to PubChem BioAssay AID2060627 (Molecular Pharmacology Branch, DTP, NCI, 2025):
Several values for one entry are separate records, joined by “and”; a condition that tells them apart may be missing. Equal values may be shown once.

Tested on: 156681-154-R-J1-PDC complex spheroid viability
Experiment: Anticancer human tumor 156681-154-R-J1-PDC patient-derived melanoma cell line growth inhibition [CLK]
Conditions: for viability, T/C: stronger effect = lower value
Method in brief: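 Multi-cell-type spheroids combined patient-derived tumor cells with HUVEC endothelial cells and human mesenchymal stem cells. Paired agents were dosed in half-log steps down from about clinical Cmax, or from 10 microM where Cmax was unknown.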

[1] = curve of first compound, second compound 0.0316 µM
[2] = curve of first compound, second compound 0.1 µM
[3] = curve of first compound, second compound 0.316 µM
[4] = curve of first compound, second compound 1 µM
[5] = curve of first compound, second compound 3.16 µM
[6] = curve of first compound, second compound 10 µM
[7] = second compound 0.0316 µM, first compound 0.0316 µM
[8] = second compound 0.0316 µM, first compound 0.1 µM
[9] = second compound 0.0316 µM, first compound 0.316 µM
[10] = second compound 0.0316 µM, first compound 1 µM
[11] = second compound 0.1 µM, first compound 0.0316 µM
[12] = second compound 0.1 µM, first compound 0.1 µM
[13] = second compound 0.1 µM, first compound 0.316 µM
[14] = second compound 0.1 µM, first compound 1 µM
[15] = second compound 0.316 µM, first compound 0.0316 µM
[16] = second compound 0.316 µM, first compound 0.1 µM
[17] = second compound 0.316 µM, first compound 0.316 µM
[18] = second compound 0.316 µM, first compound 1 µM
[19] = second compound 1 µM, first compound 0.0316 µM
[20] = second compound 1 µM, first compound 0.1 µM
[21] = second compound 1 µM, first compound 0.316 µM
[22] = second compound 1 µM, first compound 1 µM
[23] = second compound 3.16 µM, first compound 0.0316 µM
[24] = second compound 3.16 µM, first compound 0.1 µM
[25] = second compound 3.16 µM, first compound 0.316 µM
[26] = second compound 3.16 µM, first compound 1 µM
[27] = second compound 10 µM, first compound 0.0316 µM
[28] = second compound 10 µM, first compound 0.1 µM
[29] = second compound 10 µM, first compound 0.316 µM
[30] = second compound 10 µM, first compound 1 µM
[31] = second compound 0.0316 µM, first compound 3.16 µM
[32] = second compound 0.0316 µM, first compound 10 µM
[33] = second compound 0.1 µM, first compound 3.16 µM
[34] = second compound 0.1 µM, first compound 10 µM
[35] = second compound 0.316 µM, first compound 3.16 µM
[36] = second compound 0.316 µM, first compound 10 µM
[37] = second compound 1 µM, first compound 3.16 µM
[38] = second compound 1 µM, first compound 10 µM
[39] = second compound 3.16 µM, first compound 3.16 µM
[40] = second compound 3.16 µM, first compound 10 µM
[41] = second compound 10 µM, first compound 3.16 µM
[42] = second compound 10 µM, first compound 10 µM
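Further: spheroids exposed to the agents for seven days.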
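Wherever viability, T/C is given: 100% = DMSO vehicle control viability.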

`COc1c(OCCCN2CCOCC2)ccc2c3n(c(=NC(=O)c4cnc(N)nc4)nc12)CCN3` + CN1CCN(c2cc(C(=O)Nc3cc4cc(-c5cnn(C)c5)ccc4cn3)ccn2)CC1 showed an IC50 [1] of 16 nM, an IC50 [2] of 12.9 nM and an IC50 [3] of less than 3.16 nM. For the same compound, the IC50 [4] was less than 3.16 nM, the IC50 [5] was less than 3.16 nM and the IC50 [6] was less than 3.16 nM. It also gave a viability, T/C (second compound 0.0316 µM, first compound 0.00316 µM) of 76.1%, a viability, T/C (second compound 0.0316 µM, first compound 0.01 µM) of 58.8% and a viability, T/C [7] of 36.8%. It also gave a viability, T/C [8] of 12.7%, a viability, T/C [9] of 2.94% and a viability, T/C [10] of 0.44%. For the same compound, the viability, T/C (second compound 0.1 µM, first compound 0.00316 µM) was 76.2%, the viability, T/C (second compound 0.1 µM, first compound 0.01 µM) was 55.5% and the viability, T/C [11] was 29.6%. For the same compound, the viability, T/C [12] was 10.3%, the viability, T/C [13] was 1.15% and the viability, T/C [14] was 0.6%. It also gave a viability, T/C (second compound 0.316 µM, first compound 0.00316 µM) of 18.1%, a viability, T/C (second compound 0.316 µM, first compound 0.01 µM) of 15% and a viability, T/C [15] of 6.26%. It also gave a viability, T/C [16] of 2.42%, a viability, T/C [17] of 1.79% and a viability, T/C [18] of 0.42%. The viability, T/C (second compound 1 µM, first compound 0.00316 µM) was 0.13%, the viability, T/C (second compound 1 µM, first compound 0.01 µM) was 0.95% and the viability, T/C [19] was 0.12%. It also gave a viability, T/C [20] of 0.27%, a viability, T/C [21] of 0.51% and a viability, T/C [22] of 0.4%. For the same compound, the viability, T/C (second compound 3.16 µM, first compound 0.00316 µM) was 0.05%, the viability, T/C (second compound 3.16 µM, first compound 0.01 µM) was 0.16% and the viability, T/C [23] was 0.12%. The viability, T/C [24] was 1.29%, the viability, T/C [25] was 1.19% and the viability, T/C [26] was 2.81%. The viability, T/C (second compound 10 µM, first compound 0.00316 µM) was 0.04%, the viability, T/C (second compound 10 µM, first compound 0.01 µM) was 1.39% and the viability, T/C [27] was 2.94%. The viability, T/C [28] was 0.1%, the viability, T/C [29] was 0.81% and the viability, T/C [30] was 0.71%.
`CC1COCCN1c1cc(C2(S(C)(=N)=O)CC2)nc(-c2ccnc3[nH]ccc23)n1` (stereo not drawn) + CNC(=O)c1ccc(Nc2nc(OC3CCCC3)c3c(-c4ccc5nc(C)oc5c4)c[nH]c3n2)c(OC)c1 showed an IC50 [1] of 1420 nM, an IC50 [2] of 846 nM and an IC50 [3] of 757 nM. It also gave an IC50 [4] of 600 nM, an IC50 [5] of 166 nM and an IC50 [6] of 43 nM. It also gave a viability, T/C [7] of 102%, a viability, T/C [8] of 110% and a viability, T/C [9] of 86.5%. For the same compound, the viability, T/C [10] was 61%, the viability, T/C [31] was 27.7% and the viability, T/C [32] was 14.3%. For the same compound, the viability, T/C [11] was 60%, the viability, T/C [12] was 76.3% and the viability, T/C [13] was 71.9%. For the same compound, the viability, T/C [14] was 45.1%, the viability, T/C [33] was 23.3% and the viability, T/C [34] was 13.1%. The viability, T/C [15] was 68.1%, the viability, T/C [16] was 70.3% and the viability, T/C [17] was 66.6%. The viability, T/C [18] was 44.2%, the viability, T/C [35] was 24.8% and the viability, T/C [36] was 17.8%. For the same compound, the viability, T/C [19] was 63.4%, the viability, T/C [20] was 55.5% and the viability, T/C [21] was 54.7%. For the same compound, the viability, T/C [22] was 45.4%, the viability, T/C [37] was 16% and the viability, T/C [38] was 7.92%. It also gave a viability, T/C [23] of 61.8%, a viability, T/C [24] of 49.1% and a viability, T/C [25] of 42.9%. For the same compound, the viability, T/C [26] was 43.4%, the viability, T/C [39] was 14.4% and the viability, T/C [40] was 8.47%. It also gave a viability, T/C [27] of 51.5%, a viability, T/C [28] of 47.3% and a viability, T/C [29] of 30.1%. The viability, T/C [30] was 30.7%, the viability, T/C [41] was 15.5% and the viability, T/C [42] was 7.43%.
For `CC(Nc1ccc2c(c1)OCCn1cc(N3C(=O)OCC3C(F)F)nc1-2)C(N)=O` (stereo not drawn) + CN1CCN(c2cc(C(=O)Nc3cc4cc(-c5cnn(C)c5)ccc4cn3)ccn2)CC1, the IC50 [1] was 302 nM, the IC50 [2] was 241 nM and the IC50 [3] was less than 31.6 nM. It also gave an IC50 [4] of less than 31.6 nM, an IC50 [5] of less than 31.6 nM and an IC50 [6] of less than 31.6 nM. It also gave a viability, T/C [7] of 85.4%, a viability, T/C [8] of 67% and a viability, T/C [9] of 49.4%. For the same compound, the viability, T/C [10] was 34%, the viability, T/C [31] was 30% and the viability, T/C [32] was 20%. It also gave a viability, T/C [11] of 73.4%, a viability, T/C [12] of 65.6% and a viability, T/C [13] of 43.5%. For the same compound, the viability, T/C [14] was 29.9%, the viability, T/C [33] was 20% and the viability, T/C [34] was 13.7%. It also gave a viability, T/C [15] of 21.1%, a viability, T/C [16] of 15.7% and a viability, T/C [17] of 15%. For the same compound, the viability, T/C [18] was 6.71%, the viability, T/C [35] was 4.44% and the viability, T/C [36] was 4.8%. For the same compound, the viability, T/C [19] was 0.14%, the viability, T/C [20] was 0.42% and the viability, T/C [21] was 0.1%. For the same compound, the viability, T/C [22] was 0.05%, the viability, T/C [37] was 0.4% and the viability, T/C [38] was 0.2%. The viability, T/C [23] was 0.05%, the viability, T/C [24] was 1.73% and the viability, T/C [25] was 2.06%. The viability, T/C [26] was 0.08%, the viability, T/C [39] was 1.56% and the viability, T/C [40] was 1.84%. It also gave a viability, T/C [27] of 0.11%, a viability, T/C [28] of 0.1% and a viability, T/C [29] of 1.26%. The viability, T/C [30] was 2.64%, the viability, T/C [41] was 2.45% and the viability, T/C [42] was 1.35%.
With `CC1COCCN1c1cc(C2(S(C)(=N)=O)CC2)nc(-c2ccnc3[nH]ccc23)n1` (stereo not drawn) the viability, T/C (compound 0.0316 µM) was 78.6% and 84.9%, the viability, T/C (compound 0.1 µM) was 88.3% and 97.8% and the viability, T/C (compound 0.316 µM) was 85.9% and 86.3%. For the same compound, the viability, T/C (compound 1 µM) was 61.9% and 48%, the viability, T/C (compound 3.16 µM) was 24% and 20.1% and the viability, T/C (compound 10 µM) was 15.4% and 13.1%. The IC50 (curve of compound) was 1440 nM and 956 nM.
